Results as given in the supplement of paper PMC10307832.

Tests used:
Experiment in all cases: relative viability (nuclei count vs DMSO), 5 days (fraction); higher = more cells survive
Elesclomol + Bortezomib = compound: CN(NC(=O)CC(=O)NN(C)C(=S)c1ccccc1)C(=S)c1ccccc1 [Elesclomol] + CC(C)C[C@H](NC(=O)[C@H](Cc1ccccc1)NC(=O)c1cnccn1)B(O)O [Bortezomib] (partner 0.002 µM)
Outline: (§1)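 Relative viability is defined as nuclei in treated wells over nuclei in vehicle wells. Duplicate plates were run and medians reported. Lung cancer cell lines in 1536-well plates were dosed by pin tool one day after seeding, with one drug or with a fixed anchor-drug dose plus five library-drug doses (not always all listed) in √10 steps, and nuclei were counted after 5 days.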

Elesclomol + Pictilisib = compound: CN(NC(=O)CC(=O)NN(C)C(=S)c1ccccc1)C(=S)c1ccccc1 [Elesclomol] + CS(=O)(=O)N1CCN(Cc2cc3nc(-c4cccc5[nH]ncc45)nc(N4CCOCC4)c3s2)CC1 [Pictilisib] (partner 1 µM)
Outline: as §1

Elesclomol + Crizotinib = compound: CN(NC(=O)CC(=O)NN(C)C(=S)c1ccccc1)C(=S)c1ccccc1 [Elesclomol] + C[C@@H](Oc1cc(-c2cnn(C3CCNCC3)c2)cnc1N)c1c(Cl)ccc(F)c1Cl [Crizotinib] (partner 1 µM)
Outline: as §1

Elesclomol + Linsitinib = compound: CN(NC(=O)CC(=O)NN(C)C(=S)c1ccccc1)C(=S)c1ccccc1 [Elesclomol] + C[C@]1(O)C[C@@H](c2nc(-c3ccc4ccc(-c5ccccc5)nc4c3)c3c(N)nccn32)C1 [Linsitinib] (partner 1 µM)
Outline: as §1

Elesclomol + Alpelisib = compound: CN(NC(=O)CC(=O)NN(C)C(=S)c1ccccc1)C(=S)c1ccccc1 [Elesclomol] + Cc1nc(NC(=O)N2CCC[C@H]2C(N)=O)sc1-c1ccnc(C(C)(C)C(F)(F)F)c1 [Alpelisib] (partner 2 µM)
Outline: as §1

| Cell Line | relative viability (Elesclomol + Bortezomib; first compound 0.003162 µM) | relative viability (Elesclomol + Bortezomib; first compound 0.01 µM) | relative viability (Elesclomol + Bortezomib; first compound 0.03162 µM) | relative viability (Elesclomol + Bortezomib; first compound 0.1 µM) | relative viability (Elesclomol + Pictilisib; first compound 0.003162 µM) | relative viability (Elesclomol + Pictilisib; first compound 0.01 µM) | relative viability (Elesclomol + Pictilisib; first compound 0.03162 µM) | relative viability (Elesclomol + Pictilisib; first compound 0.1 µM) | relative viability (Elesclomol + Crizotinib; first compound 0.003162 µM) | relative viability (Elesclomol + Crizotinib; first compound 0.01 µM) | relative viability (Elesclomol + Crizotinib; first compound 0.03162 µM) | relative viability (Elesclomol + Crizotinib; first compound 0.1 µM) | relative viability (Elesclomol + Linsitinib; first compound 0.003162 µM) | relative viability (Elesclomol + Linsitinib; first compound 0.01 µM) | relative viability (Elesclomol + Linsitinib; first compound 0.03162 µM) | relative viability (Elesclomol + Linsitinib; first compound 0.1 µM) | relative viability (Elesclomol + Alpelisib; first compound 0.003162 µM) | relative viability (Elesclomol + Alpelisib; first compound 0.01 µM) | relative viability (Elesclomol + Alpelisib; first compound 0.03162 µM) | relative viability (Elesclomol + Alpelisib; first compound 0.1 µM) |
| --- | --- | --- | --- | --- | --- | --- | --- | --- | --- | --- | --- | --- | --- | --- | --- | --- | --- | --- | --- | --- |
| 201T | 1.09 | 1.07 | 1.08 | 1.05 | 0.672 | 0.652 | 0.665 | 0.674 | 1.01 | 0.976 | 0.978 | 0.99 | 1.08 | 1.01 | 1 | 1.01 | 0.985 | 1.02 | 1.03 | 0.964 |
| A549 |  |  |  |  | 0.493 | 0.246 | 0.1 | 0.0728 | 0.445 | 0.239 | 0.0617 | 0.0458 | 0.627 | 0.501 | 0.378 | 0.097 | 0.731 | 0.229 | 0.0735 | 0.0217 |
| A-427 | 0.956 | 0.908 | 0.99 | 0.483 | 0.678 | 0.345 | 0.648 | 0.45 | 0.959 | 0.744 | 0.895 | 0.277 | 1.1 | 1.08 | 1.14 | 0.578 | 1.04 | 1.07 | 1.15 | 0.558 |
| ABC-1 | 0.133 | 0.23 | 0.25 | 0.228 | 0.26 | 0.286 | 0.217 | 0.223 | 0.195 | 0.136 | 0.223 | 0.289 | 0.267 | 0.207 | 0.308 | 0.212 | 0.292 | 0.313 | 0.23 | 0.256 |
| BEN | 0.698 | 0.57 | 0.265 | 0.25 | 0.549 | 0.292 | 0.3 | 0.188 | 0.803 | 0.397 | 0.304 | 0.214 | 0.763 | 0.403 | 0.322 | 0.239 | 0.873 | 0.351 | 0.338 | 0.242 |
| CAL-12T | 1.01 | 0.555 | 0.257 | 0.119 | 0.521 | 0.146 | 0.0826 | 0.0934 | 0.5 | 0.0867 | 0.0556 | 0.0701 | 0.942 | 0.321 | 0.0785 | 0.0465 | 1.19 | 0.239 | 0.312 | 0.0757 |
| COR-L23 | 0.809 | 0.625 | 0.579 | 0.252 | 0.662 | 0.308 | 0.224 | 0.24 | 0.633 | 0.409 | 0.341 | 0.124 | 0.985 | 0.511 | 0.32 | 0.244 | 0.694 | 0.366 | 0.268 | 0.0856 |
| COR-L 105 | 0.751 | 0.577 | 0.347 | 0.214 | 0.398 | 0.284 | 0.249 | 0.219 | 0.787 | 0.407 | 0.288 | 0.207 | 0.715 | 0.494 | 0.371 | 0.202 | 1.11 | 0.712 | 0.409 | 0.256 |
| ChaGo-K-1 | 0.794 | 0.402 | 0.273 | 0.275 | 0.481 | 0.239 | 0.194 | 0.242 | 0.596 | 0.376 | 0.288 | 0.258 |  |  |  |  |  |  |  |  |
| EKVX | 0.997 | 0.633 | 0.312 | 0.208 | 0.386 | 0.249 | 0.176 | 0.157 | 0.741 | 0.486 | 0.376 | 0.21 | 0.915 | 0.6 | 0.239 | 0.17 | 0.857 | 0.369 | 0.328 | 0.174 |
| EMC-BAC-2 | 1.08 | 0.948 | 0.866 | 0.637 | 0.606 | 0.374 | 0.48 | 0.316 | 0.762 | 0.718 | 0.698 | 0.406 | 0.851 | 0.807 | 0.699 | 0.455 | 0.743 | 0.649 | 0.616 | 0.389 |
| EPLC-272H | 0.918 |  | 1.03 | 0.481 | 0.349 |  | 0.341 | 0.11 | 1.03 |  | 0.837 | 0.135 | 1.25 |  | 1.05 | 0.26 | 1.07 |  | 0.861 | 0.249 |
| H3255 | 0.792 | 0.465 | 0.418 | 0.289 | 0.433 | 0.336 | 0.315 | 0.266 | 0.967 | 0.459 | 0.377 | 0.409 | 1.01 | 0.702 | 0.428 | 0.432 | 0.721 | 0.473 | 0.348 | 0.309 |
| HARA | 1.1 | 1.1 | 1.01 | 0.332 | 0.548 | 0.325 | 0.363 | 0.081 | 1.06 | 0.799 | 0.987 | 0.368 | 1.11 | 0.927 | 0.872 | 0.21 | 0.803 | 0.687 | 0.944 | 0.17 |
